Laboratory results published in ChEMBL document CHEMBL1201862, “PubChem BioAssay data set” (2004).
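48-hour exposure; five concentrations; linearly interpolated endpoints. GI50 is the concentration that inhibits growth by half.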 Calls of active or inactive are those of the source. No stated cut-off is given here; in the data, active = GI50 up to about 1.1 µM and inactive = higher.

How the values were obtained:
Test in all cases: inhibition of tumour cell growth, NCI panel, 48 h
LOX IMVI = test system: LOX IMVI
CCRF-CEM = test system: CCRF-CEM
OVCAR-4 = test system: OVCAR-4
HL-60 = test system: HL-60
SF-268 = test system: SF-268
ACHN = test system: ACHN
Hs-578T = test system: Hs-578T
T47D = test system: T47D
HCT-116 = test system: HCT-116
OVCAR-8 = test system: OVCAR-8
K562 = test system: K562
EKVX = test system: EKVX
UACC-62 = test system: UACC-62
SK-MEL-2 = test system: SK-MEL-2
NCI/ADR-RES = test system: NCI/ADR-RES
SNB-75 = test system: SNB-75
RPMI-8226 = test system: RPMI-8226
RXF 393 = test system: RXF 393
M14 = test system: M14
HCT-15 = test system: HCT-15

SMILES	GI50 (LOX IMVI)	GI50 (CCRF-CEM)	GI50 (OVCAR-4)	GI50 (HL-60)	GI50 (SF-268)	GI50 (ACHN)	GI50 (Hs-578T)	GI50 (T47D)	GI50 (HCT-116)	GI50 (OVCAR-8)	GI50 (K562)	GI50 (EKVX)	GI50 (UACC-62)	GI50 (SK-MEL-2)	GI50 (NCI/ADR-RES)	GI50 (SNB-75)	GI50 (RPMI-8226)	GI50 (RXF 393)	GI50 (M14)	GI50 (HCT-15) [µM]
COC(=O)CNC(=O)CCC(C)[C@H]1CCC2C3C(C[C@H](OC(C)=O)[C@@]21C)[C@@]1(C)CCC2(C[C@H]1C[C@H]3OC(C)=O)OOC1(CCCCC1)OO2 (stereo not given in full)	2.12 µM (inactive)	2.1 µM (inactive)	1.83 µM (inactive)	2.36 µM (inactive)	1.75 µM (inactive)	1.89 µM (inactive)	2.72 µM (inactive)	2.58 µM (inactive)	2.73 µM (inactive)	1.82 µM (inactive)	3.14 µM (inactive)	2.18 µM (inactive)	9.12 µM (inactive)	2.24 µM (inactive)	2.17 µM (inactive)	2.23 µM (inactive)	1.75 µM (inactive)	1.99 µM (inactive)	3.91 µM (inactive)	2.7
Cc1cc(O)c2c(c1)C(=O)C(c1c(C)cc3c(c1O)C(=O)C1OC1C3=O)=CC2=O (stereo not given)	2.02 µM (inactive)	0.0667 µM (active)	3.33 µM (inactive)	0.0175 µM (active)	7.24 µM (inactive)	0.885 µM (active)	4.16 µM (inactive)	1.98 µM (inactive)	1.71 µM (inactive)	4.11 µM (inactive)	0.339 µM (active)	3.15 µM (inactive)	2.04 µM (inactive)	10.7 µM (inactive)	2.77 µM (inactive)	12.4 µM (inactive)	0.357 µM (active)	1.35 µM (inactive)	2.96 µM (inactive)	1.16
S=c1sc2nc(Cl)nc(Cl)c2s1	9.14 µM (inactive)	0.598 µM (active)	16.6 µM (inactive)	0.442 µM (active)	14.8 µM (inactive)	13.9 µM (inactive)	24 µM (inactive)	7.06 µM (inactive)	11.9 µM (inactive)	9.33 µM (inactive)	4.24 µM (inactive)	16.9 µM (inactive)	13 µM (inactive)	11.4 µM (inactive)	11 µM (inactive)	17.3 µM (inactive)	1.68 µM (inactive)	12 µM (inactive)	4.16 µM (inactive)	13.2
O=S(=O)(c1ccccc1)n1c(C(O)c2ccccc2)cc2ccccc21 (stereo not given)	30.1 µM (inactive)	9.46 µM (inactive)	18.1 µM (inactive)	11.4 µM (inactive)	16.3 µM (inactive)	15.7 µM (inactive)	10.9 µM (inactive)	21.3 µM (inactive)	16.5 µM (inactive)	16.9 µM (inactive)	49.4 µM (inactive)	17.4 µM (inactive)	12.9 µM (inactive)	17.1 µM (inactive)	13.1 µM (inactive)	14.7 µM (inactive)	> 100 µM (inactive)	14.3 µM (inactive)	14.9 µM (inactive)	21.3
C#CCSc1cnc2ccccc2c1Sc1c[nH]c2ccccc2c1=O	13.8 µM (inactive)	> 100 µM (inactive)	20.9 µM (inactive)	16.6 µM (inactive)	29.9 µM (inactive)	13.6 µM (inactive)	48.2 µM (inactive)	10.9 µM (inactive)	13.3 µM (inactive)	24.7 µM (inactive)	9.35 µM (inactive)	19.1 µM (inactive)	17.1 µM (inactive)	19.1 µM (inactive)	33 µM (inactive)	15.9 µM (inactive)	4.2 µM (inactive)	13.6 µM (inactive)	17 µM (inactive)	16.1
C=C1C(=O)OC2/C=C(\CO)C3OC3C3OC3(C)CC(OC(=O)/C(=C/C)COC(C)=O)C12 (stereo not given)	1.51 µM (inactive)	2.29 µM (inactive)	8.3 µM (inactive)	1.39 µM (inactive)	11.2 µM (inactive)	3.4 µM (inactive)	3.7 µM (inactive)	3.01 µM (inactive)	1.55 µM (inactive)	2.79 µM (inactive)	16 µM (inactive)	3.81 µM (inactive)	2.86 µM (inactive)	3.31 µM (inactive)	12.1 µM (inactive)	9.68 µM (inactive)	> 100 µM (inactive)	1.71 µM (inactive)	2.75 µM (inactive)	2.12
CC1OC(OC2C(O[C@@H]3C[C@@H]4CC[C@@H]5[C@H](CC[C@]6(C)C7C(C[C@@H]56)O[C@]5(CC[C@@H](C)CO5)[C@H]7C)[C@@]4(C)C[C@H]3O)OC(CO)C(O)C2O)C(O)C(O)C1O (stereo not given in full)	1.78 µM (inactive)	1.93 µM (inactive)	2.23 µM (inactive)	2.06 µM (inactive)	1.91 µM (inactive)	1.75 µM (inactive)	2.54 µM (inactive)	2.14 µM (inactive)	1.81 µM (inactive)	1.86 µM (inactive)	1.89 µM (inactive)	1.92 µM (inactive)	1.74 µM (inactive)	1.78 µM (inactive)	1.94 µM (inactive)	2.24 µM (inactive)	2.28 µM (inactive)	2.15 µM (inactive)	1.79 µM (inactive)	1.87
CC(C)CCC(=O)c1ccoc1 [PERILLAKETONE]	> 100 µM (inactive)	> 100 µM (inactive)	> 100 µM (inactive)	> 100 µM (inactive)	> 100 µM (inactive)	> 100 µM (inactive)	> 100 µM (inactive)	> 100 µM (inactive)	> 100 µM (inactive)	> 100 µM (inactive)	> 100 µM (inactive)	> 100 µM (inactive)	> 100 µM (inactive)	> 100 µM (inactive)	> 100 µM (inactive)	> 100 µM (inactive)	> 100 µM (inactive)	> 100 µM (inactive)	> 100 µM (inactive)	> 100
O=C1N/C(=N/N=C\C(O)C(O)C(O)C(O)CO)N/C1=C\c1ccc(Cl)cc1 (stereo not given)	5.5 µM (inactive)	4.89 µM (inactive)	7.46 µM (inactive)	25.3 µM (inactive)	3.61 µM (inactive)	21.9 µM (inactive)	2.48 µM (inactive)	3.25 µM (inactive)	9.59 µM (inactive)	1.53 µM (inactive)	10.6 µM (inactive)	12.1 µM (inactive)	0.571 µM (active)	7.06 µM (inactive)	> 100 µM (inactive)	2.3 µM (inactive)	> 62.8 µM (inactive)	7.19 µM (inactive)	3.1 µM (inactive)	> 86.5
Oc1ncc(Cl)c(O)n1	> 100 µM (inactive)	> 100 µM (inactive)	> 100 µM (inactive)	> 100 µM (inactive)	> 100 µM (inactive)	> 100 µM (inactive)	> 100 µM (inactive)	> 100 µM (inactive)	> 100 µM (inactive)	> 100 µM (inactive)	> 100 µM (inactive)	> 100 µM (inactive)	> 100 µM (inactive)	> 100 µM (inactive)	> 100 µM (inactive)	> 100 µM (inactive)	> 100 µM (inactive)	> 100 µM (inactive)	> 100 µM (inactive)	> 100
CCOC(=O)/C(=C\c1ccc(C#N)cc1)C(C)=O	19.9 µM (inactive)	13.5 µM (inactive)	23.3 µM (inactive)	34 µM (inactive)	25.2 µM (inactive)	23.6 µM (inactive)	24.3 µM (inactive)	21.4 µM (inactive)	23.3 µM (inactive)	36.6 µM (inactive)	30.7 µM (inactive)	49.7 µM (inactive)	2.23 µM (inactive)	15.2 µM (inactive)	28.1 µM (inactive)	14.6 µM (inactive)	22 µM (inactive)	15.3 µM (inactive)	30 µM (inactive)	18.2
Fc1ccc(C(OCCN2CCC3CCC(C2)N3Cc2cc3ccccc3[nH]2)c2ccc(F)cc2)cc1 (stereo not given)	1.79 µM (inactive)	1.71 µM (inactive)	1.95 µM (inactive)	1.58 µM (inactive)	2.04 µM (inactive)	1.89 µM (inactive)	1.88 µM (inactive)	1.59 µM (inactive)	1.33 µM (inactive)	1.73 µM (inactive)	1.13 µM (inactive)	1.7 µM (inactive)	2.08 µM (inactive)	1.71 µM (inactive)	1.57 µM (inactive)	1.89 µM (inactive)	1.42 µM (inactive)	1.59 µM (inactive)	1.6 µM (inactive)	1.15
C[S+]([O-])c1ncc2c(n1)-c1ccccc1OC2 (stereo not given)	> 100 µM (inactive)	> 100 µM (inactive)	85.9 µM (inactive)	36.7 µM (inactive)	> 100 µM (inactive)	92.5 µM (inactive)	63.4 µM (inactive)	35.2 µM (inactive)	> 100 µM (inactive)	> 100 µM (inactive)	> 100 µM (inactive)	70.1 µM (inactive)	92.3 µM (inactive)	> 100 µM (inactive)	> 100 µM (inactive)	> 100 µM (inactive)	81.8 µM (inactive)	> 100 µM (inactive)	> 100 µM (inactive)	88.1
COc1ccc(N2C(=O)C(C)SC2c2cc3cc(Br)ccc3nc2Cl)cc1 (stereo not given)	33 µM (inactive)	26.6 µM (inactive)	27.8 µM (inactive)	24.8 µM (inactive)	38.3 µM (inactive)	48.8 µM (inactive)	38.5 µM (inactive)	34.3 µM (inactive)	37.8 µM (inactive)	37.5 µM (inactive)	31.3 µM (inactive)	21.6 µM (inactive)	26.2 µM (inactive)	19.7 µM (inactive)	24.3 µM (inactive)	91 µM (inactive)	32.7 µM (inactive)	28.8 µM (inactive)	44.4 µM (inactive)	32.9
